Biological target: T1, human FSH receptor (Homo sapiens, UniProt P23945)
T1 construct: expressed in transfected cells; host or cells: CHO cells (hFSHR clone 16)
T1 sequence (P23945 18-695): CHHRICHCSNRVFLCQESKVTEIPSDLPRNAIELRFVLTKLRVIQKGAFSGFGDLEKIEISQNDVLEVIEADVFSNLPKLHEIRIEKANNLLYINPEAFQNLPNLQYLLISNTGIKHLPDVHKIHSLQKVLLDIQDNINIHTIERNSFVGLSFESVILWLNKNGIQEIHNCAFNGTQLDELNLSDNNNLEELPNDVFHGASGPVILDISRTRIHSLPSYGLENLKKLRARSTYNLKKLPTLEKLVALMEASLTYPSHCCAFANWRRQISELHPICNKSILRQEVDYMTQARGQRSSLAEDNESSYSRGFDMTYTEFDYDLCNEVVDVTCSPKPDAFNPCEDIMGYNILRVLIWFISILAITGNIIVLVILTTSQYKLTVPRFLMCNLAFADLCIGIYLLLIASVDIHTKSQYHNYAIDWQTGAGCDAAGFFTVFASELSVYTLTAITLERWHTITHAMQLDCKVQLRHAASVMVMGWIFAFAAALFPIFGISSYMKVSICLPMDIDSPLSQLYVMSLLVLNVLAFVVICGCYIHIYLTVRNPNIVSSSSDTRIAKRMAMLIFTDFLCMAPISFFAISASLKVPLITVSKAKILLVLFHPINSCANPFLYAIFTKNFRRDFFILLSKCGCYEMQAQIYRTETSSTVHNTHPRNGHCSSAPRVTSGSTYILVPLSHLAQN
Assay: HTRF assay for measuring cAMP in cells (FSH-antagonistic effect)
Type: cell-based
Details: hFSHR clone 16 cells (CHO cells stably transfected with the human FSH receptor), in the presence of 1e-9 mol/l hFSH, 37° C. for 2 h
Method: HTRF Assay for Measuring cAMP in Cells
The method is based on a competitive immunoassay between native cAMP, which has been produced by the cells, and cAMP which is labelled with cAMPD2 conjugate. The tracer binding was visualized by a monoclonal antibody, anti-cAMP labelled with cryptate [HTRF=homogeneous time-resolved fluorescence].
The specific signal is inversely proportional to the cAMP concentration of the samples employed.
The 665 nm/620 nm fluorescence ratio was evaluated.
Materials used: 96-well plates for the tissue culture, 96-well plates with black edge and black base (e.g. Fluotrac 600 from Greiner), 96-well plates for the substance dilutions of polypropylene and cAMP Femtomolar (4000 wells Kit, CIS Bio International # 62AM5PEJ).
Reagent used: BSA (bovine serum albumin) Fraction V protease-free, IBMX (3-isobutyl-1-methylxanthine), hFSH (human follicle stimulating hormone), Triton X-100 analytical grade, potassium fluoride analytical grade, G 418 (Geneticin) and Accutase.
Buffer 1 (washing and testing buffer) contained PBS, 1 mM CaCl2, 1 mM MgCl2, 0.2% glucose; 0.1% BSA, 1 mM IBMX.
Buffer 2 (2× lysis buffer) contained 1% Triton X-100 in PBS (without CaCl2 and MgCl2).
Buffer 3 (assay buffer) contained 50 mM potassium phosphate buffer (pH 7.0); 800 mM potassium fluoride; 0.2% BSA (always added fresh).
On day 1, the cells were seeded in 96-well plates (3×10^4 cells per well hFSHR clone 16 cells (CHO cells stably transfected with the human FSH receptor in 150 μl of medium). The next day, test substance dilutions were made up. For this purpose, all the substances were diluted in ice-cold buffer 1 (with or without hFSH), and the substance dilutions were placed on ice until applied to the cells. The cell supernatant was then aspirated off, and the cells were washed 2× with 200 μl of buffer 1. The cells were treated with 60 μl of the appropriate substance concentrations at 37° C. for 2 h. The cells were then lysed with 60 μl of buffer 2 (put onto the supernatant) (on a plate shaker at RT for 30 min). The test conjugates (cAMP-D2 and anti-cAMP cryptate, CIS Bio) were diluted in buffer 3 in accordance with the manufacturers' information. The actual mixture for measurement was pipetted into a black 96-well plate (in each case 15 μl of the cell lysate diluted with 35 μl of buffer 1; firstly 25 μl of cAMP-D2 conjugate were pipetted and, after 10 min, 25 μl of the anti-cAMP cryptate were added). This is followed by incubation at RT for 90 minutes. The measurement was carried out in a PheraStar (BMG).
Dose-effect curve (hFSH) for the human receptor: 1e-8, 3e-9, 1e-9, 3e-10, 1e-10, 3e-11, 1e-11, 3e-12 mol/l.
The test substances were employed in suitable dilutions in the absence (test for agonism) and in the presence of 1e-9 mol/l hFSH.
The values of the well ratio were averaged and then entered directly in SigmaPlot versus the concentrations. The maximum and minimum values were determined for each plate, and half the difference is to be regarded as IC50.

SMILES | IC50
CC(C)Oc1ccc(C#Cc2ccccc2C(F)(F)F)cc1C(=O)N[C@@H](CO)Cc1c[nH]c2ccccc12 [Example 119, N-[(R)-2-Hydroxy-1-(1H-indol-3-ylmethyl)-ethyl]-2-isopropoxy-5-(2-trifluoromethyl-phenylethynyl)-benzamide] | 25 nM
CC(C)Oc1ccc(C#Cc2cccc(S(N)(=O)=O)c2)cc1C(=O)N[C@@H](CO)Cc1c[nH]c2ccccc12 [Example 123, N-[(R)-2-Hydroxy-1-(1H-indol-3-ylmethyl)-ethyl]-2-isopropoxy-5-(3-sulfamoyl-phenylethynyl)-benzamide] | 250 nM
CC(C)Oc1ccc(C#Cc2ccc(N3CCCC3=O)cc2)cc1C(=O)N[C@@H](CO)Cc1c[nH]c2ccccc12 [Example 124, N-[(R)-1-Hydroxymethyl-2-(1H-indol-3-yl)-ethyl]-2-isopropoxy-5-[4-(2-oxo-pyrrolidin-1-yl)-phenylethynyl]-benzamide] | 80 nM
CC(C)Oc1ccc(C#Cc2ccc3oc(C(=O)O)cc3c2)cc1C(=O)N[C@@H](CO)Cc1c[nH]c2ccccc12 [Example 127, 5-{3-[(R)-1-Hydroxymethyl-2-(1H-indol-3-yl)-ethylcarbamoyl]-4-isopropoxy-phenylethynyl}-benzofuran-2-carboxylic acid] | 90 nM
CC(C)Oc1ccc(C#Cc2ccc(N3CCNCC3)cc2)cc1C(=O)N[C@@H](CO)Cc1c[nH]c2ccccc12 [Example 140, N-[(R)-1-Hydroxymethyl-2-(1H-indol-3-yl)-ethyl]-2-isopropoxy-5-(4-piperazin-1-yl-phenylethynyl)-benzamide] | 3500 nM
CC(C)Oc1ccc(C#Cc2cccc(CN3CCNCC3)c2)cc1C(=O)N[C@@H](CO)Cc1c[nH]c2ccccc12 [Example 141, N-[(R)-1-Hydroxymethyl-2-(1H-indol-3-yl)-ethyl]-2-isopropoxy-5-(3-piperazin-1-ylmethyl-phenylethynyl)-benzamide] | 2000 nM
CC(C)Oc1ccc(C#Cc2ccc(-c3cc[nH]n3)cc2)cc1C(=O)N[C@@H](CO)Cc1c[nH]c2ccccc12 [Example 142, N-[(R)-2-Hydroxy-1-(1H-indol-3-ylmethyl)-ethyl]-2-isopropoxy-5-[4-(1H-pyrazol-3-yl)-phenylethynyl]-benzamide] | 10 nM
CC(C)Oc1ccc(C#Cc2cnc(N3CCOCC3)nc2)cc1C(=O)N[C@@H](CO)Cc1c[nH]c2ccccc12 [Example 145, N-[(R)-1-Hydroxymethyl-2-(1H-indol-3-yl)-ethyl]-2-isopropoxy-5-(2-morpholin-4-yl-pyrimidin-5-ylethynyl)-benzamide] | 300 nM
CC(C)Oc1ccc(C#Cc2ccc(N3CCNC3=O)cc2)cc1C(=O)N[C@@H](CO)Cc1c[nH]c2ccccc12 [Example 146, N-[(R)-1-Hydroxymethyl-2-(1H-indol-3-yl)-ethyl]-2-isopropoxy-5-[4-(2-oxo-imidazolidin-1-yl)-phenylethynyl]-benzamide] | 70 nM
CC(C)Oc1ccc(C#Cc2cccc(-c3nnn[nH]3)c2)cc1C(=O)N[C@@H](CO)Cc1c[nH]c2ccccc12 [Example 148, N-[(R)-2-Hydroxy-1-(1H-indol-3-ylmethyl)-ethyl]-2-isopropoxy-5-[3-(1H-tetrazol-5-yl)-phenylethynyl]-benzamide] | 30 nM
CC(C)Oc1ccc(C#Cc2ccc3c(c2)CCNC3=O)cc1C(=O)N[C@@H](CO)Cc1c[nH]c2ccccc12 [Example 154, N-[(R)-1-Hydroxymethyl-2-(1H-indol-3-yl)-ethyl]-2-isopropoxy-5-(1-oxo-1,2,3,4-tetrahydro-isoquinolin-6-ylethynyl)-benzamide] | 6 nM
CC(C)Oc1ccc(C#Cc2ccc3c(c2)C(=O)NC3)cc1C(=O)N[C@@H](CO)Cc1c[nH]c2ccccc12 [Example 155, N-[(R)-1-Hydroxymethyl-2-(1H-indol-3-yl)-ethyl]-2-isopropoxy-5-(3-oxo-2,3-dihydro-1H-isoindol-5-ylethynyl)-benzamide] | 15 nM
CC(C)Oc1ccc(C#Cc2ccc3c(c2)C(=O)NC3=O)cc1C(=O)N[C@@H](CO)Cc1c[nH]c2ccccc12 [Example 156, 5-(1,3-Dioxo-2,3-dihydro-1H-isoindol-5-ylethynyl)-N-[(R)-1-hydroxymethyl-2-(1H-indol-3-yl)-ethyl]-2-isopropoxy-benzamide] | 15 nM
O=C(N[C@@H](CO)Cc1c[nH]c2ccccc12)c1cccc(C#Cc2ccccn2)c1 [Example 160, N-[(R)-1-Hydroxymethyl-2-(1H-indol-3-yl)-ethyl]-3-pyridin-2-ylethynyl-benzamide] | 6000 nM
COC(=O)CCNC(=O)c1cccc(C#Cc2ccc(OC(C)C)c(C(=O)N[C@@H](CO)Cc3c[nH]c4ccccc34)c2)c1 [Example 165, 3-(3-{3-[(R)-1-Hydroxymethyl-2-(1H-indol-3-yl)-ethylcarbamoyl]-4-isopropoxy-phenylethynyl}-benzoylamino)-propionic acid methyl ester] | 15 nM
CC(C)Oc1ccc(C#Cc2cccc(C(=O)NCCS(N)(=O)=O)c2)cc1C(=O)N[C@@H](CO)Cc1c[nH]c2ccccc12 [Example 167, N-[(R)-1-Hydroxymethyl-2-(1H-indol-3-yl)-ethyl]-2-isopropoxy-5-[3-(2-sulfamoyl-ethylcarbamoyl)-phenylethynyl]-benzamide] | 23 nM
COC(=O)CCCCCNC(=O)c1ccc(C#Cc2ccc(OC(C)C)c(C(=O)N[C@@H](CO)Cc3c[nH]c4ccccc34)c2)cc1 [Example 171, 6-(4-{3-[(R)-1-Hydroxymethyl-2-(1H-indol-3-yl)-ethylcarbamoyl]-4-isopropoxy-phenylethynyl}-benzoylamino)-hexanoic acid methyl ester] | 25 nM
CC(C)Oc1ccc(C#Cc2ccc(C(=O)NCCN3CCNC(=O)C3)cc2)cc1C(=O)N[C@@H](CO)Cc1c[nH]c2ccccc12 [Example 173, N-[(R)-1-Hydroxymethyl-2-(1H-indol-3-yl)-ethyl]-2-isopropoxy-5-{4-[2-(3-oxo-piperazin-1-yl)-ethylcarbamoyl]-phenylethynyl}-benzamide] | 35 nM
CC(C)Oc1ccc(C#Cc2ccc(C(=O)NCCC(N)=O)cc2)cc1C(=O)N[C@@H](CO)Cc1c[nH]c2ccccc12 [Example 177, 5-[4-(2-Carbamoyl-ethylcarbamoyl)-phenylethynyl]-N-[(R)-1-hydroxymethyl-2-(1H-indol-3-yl)-ethyl]-2-isopropoxy-benzamide] | 20 nM

Reference: patent US20080221195A1, “1,2-DIARYLACETYLENE DERIVATIVES OF ACYLTRYPTOPHANOLS” (priority 2006, published 2008)
